Data as given in patent US20080293640A1, “Polypeptide inhibitors of HSP27 kinase and uses therefor” (Arizona Board of Regents, A body Corporate, of the State of …, priority 2007, published 2008).

What was measured:
[1] = test system: rat aortic smooth muscle (A7R5) cells; assay: LPA induced CTGF expression in A7R5 cells (western blot); assay type: cell-based; conditions: BIP 10 or 20 μM or SB 20 μM for 2 h prior to LPA 25 μM, 24 h; FIG. 9
Experimental: The cells were serum starved with DMEM medium supplemented with 1% BSA and 1% penicillin/streptomycin for 24 h. Cells were either untreated (C) or pre-treated with BIP (10 or 20 μM) or SB (20 μM) for 2 h prior the stimulation with lysophosphatidic acid (LPA, 25 μM). After 24 h the cells were lysed, protein extracted and separated by SDS-PAGE and analyzed by western blotting. The data are shown in FIG. 9; Panel A is a representative western blot, while Panel B provides the data. The bands were quantified by densitometry, and CTGF expression was related to actin expression to correct for loading differences. CTGF expression in untreated cells (C) was set to 1 for comparison of different blots. Data expressed as mean ±standard deviation of 3 experiments. *: p<0.05 compared to the cells stimulated with LPA.

[2] = test system: rat aortic smooth muscle (A7R5) cells; assay: Scratch migration of A7R5 cells stimulated with LPA or TGF; assay type: cell-based; conditions: BIP 10 μM for 2 h prior to LPA 25 μM or TGF 2.5 ng/mL; FIG. 10
Experimental: A7R5 cells were serum starved with DMEM medium supplemented with 1% BSA and 1% penicillin/streptomycin for 24 h. A scratch made in the dishes using the tip of a pipette, and the cells were rinsed 3 times with PBS. Cells were untreated (C) or pre-treated with BIP (10 μM) for 2 h prior the stimulation with lysophosphatidic acid (LPA, 25 μM) or TGF (2.5 ng/mL). *: p<0.05 compared to the cells stimulated with LPA or TGF.

[3] = test system: Rat aortic smooth muscle, A7R5 cells; assay: ARS or LPA induced phosphorylation of HSP27 in A7R5 cells (western blot); assay type: cell-based; conditions: BIP 1, 5 or 10 μM or SB 20 μM for 2 h prior to ARS 500 μM or LPA 25 μM for 0.5 h; FIG. 8
Experimental: The cells were serum starved with DMEM medium supplemented with 1% BSA and 1% penicillin/streptomycin for 24 h. The phosphorylation of HSP27 was induced using arsenite (ARS, 500 μM) or lysophosphatidic acid (LPA, 25 μM) for 0.5 h. Cells were either untreated or pre-treated with BIP (1, 5 or 10 μM) or SB (20 μM) for 2 h prior to the stimulation with ARS or LPA. Cells were frozen after treatment and analyzed by SDS-PAGE and western blot. The data are shown in FIG. 8; Panels A and B are representative western blots, while Panels C and D provide the data. The bands were quantified by densitometry, and phosphorylated HSP27 or non-phosphorylated HSP27 expressions were related to actin expression to correct for loading differences. The ratio of phosphorylated HSP27/HSP27 (relative p-HSP27/HSP27) in untreated cells was set to 1 for comparison of different blots. Data expressed as mean ±standard deviation of 4 experiments. *: p<0.05 compared to the untreated cells (C).

[4] = test system: human saphenous vein (HSV); assay: Sodium nitroprusside induced relaxation of human saphenous vein segments in a muscle bath; conditions: pretreated 2 hrs with 25 μM SB203580 or 30 μM BIP; contracted with NE 0.5 μM; SNP 0-1 μM; n=3; FIG. 5
Experimental: Segments of human saphenous vein (HSV) were equilibrated in a muscle bath and pretreated with buffer (control), 25 μM SB203580 (SB) or 30 μM BIP for 2 hrs and then contracted with norepinephrine (NE, 0.5 μM) and relaxed with increasing doses of sodium nitroprusside (SNP, 0-1 μM).

human keloid fibroblasts [5] = assay: TGF-β1 induced expression of CTGF and collagen in human keloid fibroblasts (immunoblot); assay type: cell-based
From the text: (§1) One important downstream signaling event in the TGFB signaling pathway is the activation of HSP27 kinase. We have designed a cell permeable inhibitor of this kinase (BIP) that effectively blocks its activity. In this study, we employ stable isotopic labeling by amino acids in cell culture (SILAC) as a means to quantitate the protein expression differences manifest during 1) TGF-β1 stimulation, 2) TGF-β1 stimulation in the presence of BIP, or 3) no treatment at all (control) in a keloid fibroblast cell line. Human keloid fibroblasts were grown to 80% confluence, and then serum-starved for 48 h. The cells were subsequently stimulated with nothing (control), with 1.25 ng/ml of transforming growth factor beta 1 (TGFβ) for 24 h, or 10 μM of a BIP for 2 h followed by TGFβ1 for 24 h (TGFβ+BIP). The expression of CTGF and collagen was assessed by immunoblot and normalized to b-actin expression. Phospho-HSP27 was expressed as a ratio to endogenous HSP27. Quantitative results represent average ±standard deviation from 3 independent experiments.
Human keloid fibroblasts were maintained in Dulbecco's modified Eagle's medium (DMEM) supplemented with fetal calf serum (10%) and streptomycin/penicillin (1%). They were grown to 80% confluence, and then serum-starved for 48 h. […] The expression of CTGF and collagen was assessed by immunoblot and normalized to GAPDH (loading control) expression. Results in the graphs (FIG. 3) represent average ±standard deviation from 3 independent experiments.
In a further example, BIP was used at lower concentrations (5 or 10 μM).

[6] = test system: Human saphenous vein rings; assay: Intimal thickening in human saphenous vein rings, 14 day organ culture; conditions: BIP 5 or 10 μM, SB 20 μM; 14 days; FIG. 6
Experimental: Human saphenous vein rings were cultured in RPMI medium supplemented with L-glutamine (1%), penicillin/streptomycin (1%) and FBS (30%) at 5% CO2 and 37° C. for 14 days. The rings were either untreated (C) or treated with BIP (5 or 10 μM), SB (20 μM) or recombinant HSP27 protein (r-HSP27). * p<0.05 compared to the control (untreated) rings. After 14 days, the rings were fixed in formalin, embedded in paraffin, sectioned at 10 micrometer and stained using Weigert's Resorcin Fuchsin. The slides were analyzed by Zeiss microscope with 40× objective. The intimal thickness was measured using Zeiss and Adobe Photoshop software.

human keloid fibroblasts [7] = assay: TGF-β1 induced stress fiber formation in human keloid fibroblasts (phalloidin microscopy); assay type: cell-based; conditions: 60 μM BIP for 2 h followed by TGF-β1 1.25 ng/ml for 24 h
Experimental: Human keloid fibroblasts were maintained in Dulbecco's modified Eagle's medium (DMEM) supplemented with fetal calf serum (10%) and streptomycin/penicillin (1%). They were grown on cover slips and then serum-starved for 48 h. […] Cells were washed, processed for microscopy and labelled with Alexa 586-conjugated phalloidin to reveal the actin cytoskeleton and DAPI to reveal nucleus, magnification 40×.

human keloid fibroblasts [8] = assay: TGF-β1 induced phosphorylation of HSP27 in human keloid fibroblasts (immunoblot); assay type: cell-based
From the text: as §1
Human keloid fibroblasts were maintained in Dulbecco's modified Eagle's medium (DMEM) supplemented with fetal calf serum (10%) and streptomycin/penicillin (1%). They were grown to 80% confluence, and then serum-starved for 48 h. […] The phosphorylation of HSP27 was assessed by immunoblot analysis using antibodies as indicated. B, The ratio of P-P27 to P27 was calculated and the percent phosphorylation was determined with respect to the phosphorylation obtained with TGF b (lane 2).
In a separate example, lower concentrations of BIP (5 μM and 10 μM) were employed. […] TGF-β1-stimulated cells were treated with BIP (5 or 10 μM) for 24 h, and HSP27 and phospho-HSP27 levels were quantified relative to β-actin expression to correct for loading differences and normalized to untreated levels.

[9] = test system: Human saphenous vein rings; assay: CTGF expression and phosphorylation of HSP27 in saphenous vein organ culture model (western blot); conditions: BIP 5 or 10 μM, SB 20 μM; 14 days; related to actin, untreated set to 1; FIG. 7
Experimental: The human saphenous vein rings were cultured in RPMI medium supplemented with L-glutamine (1%), penicillin/streptomycin (1%) and FBS (30%) at 5% CO2 and 37° C. for 14 days. The rings were either untreated (Control, C) or treated with BIP (5 or 10 μM) or SB (20 μM). Rings were frozen after 14 days and protein was extracted and separated by SDS-PAGE and analyzed by western blot using the antibodies as indicated. The data is shown in FIG. 7; Panel A is a representative blot, and Panels B and C show the data summary. The bands were quantified by densitometry, and CTGF, phosphorylated HSP27 or non-phosphorylated HSP27 expressions were related to actin expression to correct for loading differences. The expression of CTGF and HSP27 and phospho-HSP27 in untreated rings was set to 1 for comparison of different blots. Data expressed as mean ±standard deviation of 6 experiments (panel right). *: p<0.05 compared to the untreated rings (C).

human keloid fibroblasts [10] = assay: TGF-β1 induced phosphorylation of HSP27 in human keloid fibroblasts (fluorescence microscopy); assay type: cell-based; conditions: 60 μM BIP for 2 h followed by TGF-β1 1.25 ng/ml for 24 h
Experimental: Human keloid fibroblasts were maintained in Dulbecco's modified Eagle's medium (DMEM) supplemented with fetal calf serum (10%) and streptomycin/penicillin (1%). They were grown on cover slips and then serum-starved for 48 h. […] Cells were washed, processed for microscopy and labelled with Cy2 for phospho-HSP27 (ser 78/82, green fluorescence), Alexa 586-conjugated phalloidin (red) to reveal the actin cytoskeleton and DAPI (blue) to reveal nucleus, magnification 40×. Pre-treatment of cells with BIP followed by TGFb1 reduced phosphorylation of HSP27 in keloid fibroblasts.

MAPKAPKII = MAPKAPKII (Homo sapiens, UniProt P49137); assay: In vitro phosphorylation of recombinant HSP27 with […] (immunoblot); assay type: biochemical; conditions: MAPKAPKII 50 ng, 30 min at 30° C.; ratio P-P27 to P27, percent phosphorylation vs no inhibitor; FIG. 1
Chain of MAPKAPKII (P49137 whole entry): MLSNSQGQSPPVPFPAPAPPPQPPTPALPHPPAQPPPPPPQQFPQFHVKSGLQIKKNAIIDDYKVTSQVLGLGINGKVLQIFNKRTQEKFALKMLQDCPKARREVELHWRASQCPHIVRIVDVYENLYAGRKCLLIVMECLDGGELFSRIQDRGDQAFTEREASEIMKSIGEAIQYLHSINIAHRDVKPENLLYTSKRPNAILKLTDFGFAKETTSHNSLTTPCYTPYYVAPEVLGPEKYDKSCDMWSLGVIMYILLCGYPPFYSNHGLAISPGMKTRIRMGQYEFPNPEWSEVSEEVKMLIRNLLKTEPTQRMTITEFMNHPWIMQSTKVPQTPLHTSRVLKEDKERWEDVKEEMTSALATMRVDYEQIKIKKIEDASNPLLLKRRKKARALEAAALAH
Experimental: Recombinant HSP27 ([…]) was phosphorylated with no enzyme (control, lane 1), […] (50 ng) in the absence (lane 2) or presence of 200 μM ([…]) (SEQ ID NO: 44) obtained from Calbiochem, (lane 3), or BIP (HSP27 kinase inhibitor peptide, […] (SEQ ID NO: 45) (lane 4) or HSP20 phosphopeptide (PTD-P20, lane 4) for 30 min at 30° C. The reaction mixtures were inactivated and separated by SDS-PAGE and transferred to PVDF membrane. The blot was probed with antibodies against HSP27 and phospho-HSP27. The ratio of P-P27 to P27 was calculated and the percent phosphorylation was determined with respect to the phosphorylation obtained in the absence of inhibitor (lane 2). This blot is a representative of 2 separate experiments.

[11] = test system: Human Aortic Endothelial Cells; assay: Endothelial cell proliferation (CyQuant NF Cell Proliferation Assay); assay type: cell-based; conditions: 1, 10 or 50 μM BIP, 16 hours
Experimental: Human Aortic Endothelial Cells (Passage 2) (Cascade Biologics) were seeded into 96-well plates at a concentration of 2000 cells per well as determined using a hemocytometer and allowed to adhere for 4 hours. They were then treated with a final concentration of 1, 10 or 50 μM MK2 inhibitor peptide (BIP), 1, 10, or 50 μM scrambled peptide (SCR), or and equal volume of PBS. Cells were returned to the incubator for 16 hours and counted on a Molecular Devices M5 spectrophotometer after 1 hour treatment with CyQuant NF Cell Proliferation Assay (Invitrogen).

[12] = 10 μM BIP for 2 h followed by TGFβ1 1.25 ng/ml for 24 h
[13] = 60 μM BIP for 2 h followed by TGF-β1 1.25 ng/ml for 24 h, normalized to GAPDH, FIG. 3

Row | Compound | LPA induced CTGF expression [1] | migration of cells [2] | phosphorylation of HSP27 (relative p-HSP27/HSP27) [3] | sodium nitroprusside induced relaxation of saphenous vein [4] | TGFβ1 induced expression of CTGF (human keloid fibroblasts [5]; [12]) | TGFβ1 induced expression of collagen (human keloid fibroblasts [5]; [12]) | TGF-β1 induced expression of CTGF (human keloid fibroblasts [5]; [13]) | TGF-β1 induced expression of collagen (human keloid fibroblasts [5]; [13]) | thickening of the intimal layer in saphenous vein [6] | central actin (human keloid fibroblasts [7]) | stress fiber formation (human keloid fibroblasts [7]) | phosphorylation of HSP27 (phospho-HSP27 as ratio to endogenous HSP27) (human keloid fibroblasts [8]; 10 μM BIP for 2 h followed by TGFβ1 for 24 h, FIG. 2) | TGF-β1 induced phosphorylation of HSP27, immunoblot (human keloid fibroblasts [8]; 10 μM BIP for 24 h, TGF-β1-stimulated cells, relative to β-actin, normalized to untreated) | TGF-β1 induced phosphorylation of HSP27 (ratio P-P27 to P27), immunoblot (human keloid fibroblasts [8]; 60 μM BIP for 2 h followed by TGFβ-1 […] for 24 h, n=3, FIG. 4) | CTGF expression in saphenous vein [9] | phosphorylation of HSP27 in saphenous vein [9] | TGF-β1 induced phosphorylation of HSP27 (ser 78/82), fluorescence microscopy (human keloid fibroblasts [10]) | MAPKAPKII induced phosphorylation of HSP27 in vitro (MAPKAPKII) | EC proliferation [11]
1 | WLRRIKAWLRRIKALNRQLGVAA [BIP] | inhibits | inhibits | inhibits | significant increases | inhibits | inhibits | inhibits | inhibits | inhibits | loss of central actin | reduced stress fiber formation | reduces | inhibits | effectively inhibited | inhibits | inhibits | reduced | inhibits | Does Not Inhibit
2 | C[S+]([O-])c1ccc(-c2nc(-c3ccncc3)c(-c3ccc(F)cc3)[nH]2)cc1 (stereo not shown) [SB, SB 203580, reference compound] | Inhibits | – | Inhibits | significant increases | – | – | – | – | Inhibits | – | – | – | – | – | Inhibits | Inhibits | – | – | –
